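Briefly, cells in 96-well plates were exposed to five compound concentrations for 48 h, and endpoints were estimated by linear interpolation. GI50 marks 50% less growth. TGI: total growth inhibition.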
What was measured:
Assay in all cases: inhibition of tumour cell growth, NCI panel, 48 h
PC-3 prostate = test system: PC-3 prostate
MDA-MB-231 breast = test system: MDA-MB-231 breast
UACC-62 melanoma = test system: UACC-62 melanoma
HCC-2998 colon = test system: HCC-2998 colon
RXF 393 renal = test system: RXF 393 renal
MDA-MB-435 = test system: MDA-MB-435
U251 CNS = test system: U251 CNS
MOLT-4 leukemia = test system: MOLT-4 leukemia
SF-268 CNS = test system: SF-268 CNS
IGROV1 ovarian = test system: IGROV1 ovarian

Compound | GI50 (PC-3 prostate) [µM] | TGI (PC-3 prostate) [µM] | GI50 (MDA-MB-231 breast) [µM] | TGI (MDA-MB-231 breast) [µM] | GI50 (UACC-62 melanoma) [µM] | TGI (UACC-62 melanoma) [µM] | GI50 (HCC-2998 colon) [µM] | TGI (HCC-2998 colon) [µM] | GI50 (RXF 393 renal) [µM] | TGI (RXF 393 renal) [µM] | GI50 (MDA-MB-435) [µM] | TGI (MDA-MB-435) [µM] | GI50 (U251 CNS) [µM] | TGI (U251 CNS) [µM] | GI50 (MOLT-4 leukemia) [µM] | TGI (MOLT-4 leukemia) [µM] | GI50 (SF-268 CNS) [µM] | TGI (SF-268 CNS) [µM] | GI50 (IGROV1 ovarian) [µM] | TGI (IGROV1 ovarian) [µM]
Oc1c(CN2CCOCC2)cc(COCc2ccccc2)c2cccnc12 | 7.34 | > 100 | 6.48 | > 100 | 2.24 | 8.91 | 3.28 | > 100 | 3.25 | 72.7 | 6.5 | > 100 | 2.77 | > 100 | 2.57 | 17.7 | 1.95 | > 100 | 3.85 | > 100
Cc1cc(S(=O)(=O)Nc2nc3cc(Cl)ccc3o2)c(SCc2ccccc2)cc1Cl | 21.5 | 43.5 | 24.2 | 50.7 | 19.2 | 41.3 | 18.9 | 37.4 | 30.9 | 58.5 | 21.5 | 42 | 19.2 | 37.1 | 37.8 | > 100 | 21.5 | 49.7 | 19.8 | 44.3
O=C(CCl)Nc1cc(O)c2c(c1)C(=O)c1cccc(O)c1C2=O | 1.57 | 3.95 | 1.91 | 5.88 | 1.47 | 3.84 | 1.75 | 3.4 | 1.72 | 3.5 | 1.95 | 4.72 | 1.63 | 3.18 | 0.321 | 1.76 | 1.69 | 3.9 | 0.942 | 3.13
CC(C)(C)C(=O)OCc1nc2cc3c(cc2c(=O)[nH]1)CCC3=O | > 100 | > 100 | > 100 | > 100 | > 100 | > 100 | > 100 | > 100 | > 100 | > 100 | > 100 | > 100 | > 100 | > 100 | > 100 | > 100 | > 100 | > 100 | > 100 | > 100
O=C(Nc1cccc(C(F)(F)F)c1)c1cc(Br)cc(Br)c1O | – | 7.28 | – | > 10 | – | > 10 | – | > 10 | – | 9.12 | – | > 10 | – | > 10 | – | > 10 | – | > 10 | – | > 10
O=[N+]([O-])c1cc(F)c2cccnc2c1O | 4.47 | > 100 | 25.8 | > 100 | 11 | 55.6 | 10.6 | > 100 | 17.5 | 76.3 | 15 | > 100 | 4.9 | 90.3 | 2.43 | 11 | 6.21 | > 100 | 2.5 | 14.7
O=S(=O)(O)ONC1=NCCN1 | > 100 | > 100 | > 100 | > 100 | > 100 | > 100 | > 100 | > 100 | 66.7 | > 100 | > 100 | > 100 | > 100 | > 100 | 49.7 | > 100 | > 100 | > 100 | > 100 | > 100
c1ccc2nc(OCCN3CC3)ccc2c1 | 10.4 | 25.2 | 7.95 | 26.3 | 13 | 34.1 | 2.31 | 5.53 | 14.6 | 32.5 | 3.31 | 17.9 | 5.2 | 18.9 | 4.04 | 59 | 16 | 35.5 | 2.24 | 10.8
O=c1c2c3c(sc2n2c(-c4ccc(Br)cc4)nnc2n1Cc1ccccc1)CCCC3 | 2.97 | 16.6 | 3.39 | 16.6 | 4.39 | 17.2 | 3.25 | 13.4 | – | – | 14.2 | 35.3 | 6.89 | 19.7 | 3.84 | 91.6 | 7.44 | 21.1 | 11.7 | 26.9
CCCCCCNC(=O)Oc1ccc(/C(=C(\C)c2ccccc2)c2ccc(OCCN(CC)CC)cc2)cc1 | 2.81 | 9.21 | 5.08 | 11.4 | 2.05 | 7.4 | 2.33 | 8.16 | 2.35 | 8.16 | 3.57 | 10.1 | 2.41 | 8.15 | 1.78 | 7.79 | 5.54 | 13.1 | 3.11 | 9.82
N#Cc1cccc(OCc2ccccc2COc2cccc(C#N)c2)c1 | 25.5 | > 100 | 7.83 | 47.5 | 18.3 | 73 | > 100 | > 100 | – | – | 25.4 | > 100 | 19.4 | 43.4 | > 100 | > 100 | 25 | 61.2 | > 100 | > 100
CC(=O)N1CCN(CCOc2ccc(C3CCN(C4=Nn5c(nnc5C(F)(F)F)CC4)CC3)cc2)CC1 | 7.87 | > 100 | 7.83 | > 100 | 2.84 | > 100 | 21.6 | > 100 | 19.4 | > 66 | 10.2 | > 100 | 47.9 | > 100 | 27 | > 100 | 77.9 | > 100 | 17.4 | > 100
CCOC(=O)c1ccccc1-c1c2ccc(=[N+](C)C)cc-2oc2cc(N(C)C)ccc12 | 0.0778 | 12.8 | 0.301 | 10.7 | 0.332 | 4.12 | 0.35 | 13.9 | 0.692 | 7.58 | 0.255 | 5.71 | 0.128 | > 35.7 | 0.488 | 35.7 | 0.332 | 27.5 | 0.332 | 16.1
